Experimental data: US11299467B2 (Antabio SAS, priority 2017, dated 2022)
Read-outs that look alike come from different tables or passages of the source.

Key:
NDM-1 = NDM-1 (Klebsiella pneumoniae, UniProt C7C422); assay: In vitro enzyme inhibition assay, purified NDM-1 (imipenem hydrolysis, UV 299 nm); format: biochemical
Description: (§1) Enzyme inhibition assays were performed using purified MBL enzymes (NDM-1; VIM-1; VIM-2; IMP-1) in 10 mM HEPES buffer pH 7.5 in 96-well microtiter plates. Imipenem (300 μM) was used as substrate and its hydrolysis was followed at UV 299 nm during 10 mn every 30 seconds using a Perkin Elmer Envision UV fluorescence plate reader.
(§2) Mean Ki values from multiple experiments are presented below.
(§3) Studies were undertaken to compare the compounds of the invention with structurally similar compounds (“Comp. x”). Experiments were conducted as described above.

VIM-1 = VIM-1 (Pseudomonas aeruginosa, UniProt A0A0F7KYQ8); assay: In vitro enzyme inhibition assay, purified VIM-1 (imipenem hydrolysis, UV 299 nm); format: biochemical
Description: as §1, §2, §3

VIM-2 = VIM-2 (Escherichia coli, UniProt Q5U7L7); assay: In vitro enzyme inhibition assay, purified VIM-2 (imipenem hydrolysis, UV 299 nm); format: biochemical
Description: as §1, §2, §3

IMP-1 = IMP-1 (Serratia marcescens, UniProt P52699); assay: In vitro enzyme inhibition assay, purified IMP-1 (imipenem hydrolysis, UV 299 nm); format: biochemical
IMP-1, sequence (P52699 19-246, looked up, species assumed): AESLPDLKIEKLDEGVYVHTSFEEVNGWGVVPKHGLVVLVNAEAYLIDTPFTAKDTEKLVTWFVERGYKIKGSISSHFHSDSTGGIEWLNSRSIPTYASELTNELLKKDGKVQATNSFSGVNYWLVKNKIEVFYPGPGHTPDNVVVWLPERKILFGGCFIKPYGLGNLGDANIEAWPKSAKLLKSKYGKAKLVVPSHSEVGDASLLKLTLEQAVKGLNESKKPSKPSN
Description: as §1, §2, §3

[1] = Plasma stability of test compounds in human plasma; format: in vitro ADME; conditions: 1 μM, 37° C.
Description: [table] Test compound and QC compound were incubated at a final concentration of 1 μM in plasma at 37° C. in shaker water bath with gentle shaking. At predetermined time points, reaction was terminated with 200 μL of acetonitrile containing internal standard and centrifuged at 4000×RCF, 4° C. for 20 minutes. Supernatant was separated and analyzed by LC-MS/MS. The following equation was used to determine the percentage remaining of test/QC compound following the procedure above: […]

[2] = comparative study bands, read-out: Ki NDM-1 (comparative study)
[3] = comparative study bands, read-out: Ki VIM-1 (comparative study)
[4] = comparative study bands, read-out: Ki VIM-2 (comparative study)
[5] = comparative study bands, read-out: Ki IMP-1 (comparative study)
[6] = mean Ki from multiple experiments, imipenem 300 μM, Cheng-Prusoff from IC50, read-out: Ki NDM-1
[7] = mean Ki from multiple experiments, imipenem 300 μM, Cheng-Prusoff from IC50, read-out: Ki VIM-1
[8] = mean Ki from multiple experiments, imipenem 300 μM, Cheng-Prusoff from IC50, read-out: Ki VIM-2
[9] = mean Ki from multiple experiments, imipenem 300 μM, Cheng-Prusoff from IC50, read-out: Ki IMP-1

NDM-1, sequence (C7C422 29-270, looked up): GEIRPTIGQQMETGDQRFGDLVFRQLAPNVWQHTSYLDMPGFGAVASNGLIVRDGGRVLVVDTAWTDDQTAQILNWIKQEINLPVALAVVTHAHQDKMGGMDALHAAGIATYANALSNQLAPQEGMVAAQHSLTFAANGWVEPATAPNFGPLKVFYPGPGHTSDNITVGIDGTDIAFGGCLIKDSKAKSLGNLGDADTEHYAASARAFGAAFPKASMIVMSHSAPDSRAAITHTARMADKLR

Ki (NDM-1; [2]) | Ki (VIM-1; [3]) | Ki (VIM-2; [4]) | Ki (IMP-1; [5]) | Stability in human plasma, % remaining ([1]; after 5 hours) | Ki (NDM-1; [6]) | Ki (VIM-1; [7]) | Ki (VIM-2; [8]) | Ki (IMP-1; [9]) | Stability in human plasma, % remaining ([1]; after 2 hours) | Compound
< 30 nM | 300 to 500 nM | 100 to 150 nM | 600 to 5000 nM | 0% remaining after 5 hours |  |  |  |  |  | NCC(=O)Nc1c(F)cc(S(=O)(=O)Nc2scnc2C(=O)O)cc1F [Comp. B, reference compound]
 |  |  |  |  | < 50 nM | 200 to 500 nM | 50 to 150 nM | 1000 to 10000 nM |  | O=C(CCC1=NCCN1)Nc1ccc(S(=O)(=O)Nc2scnc2C(=O)O)cc1F [Example 36, 5-[[4-[3-(4,5-dihydro-1H-imidazol-2-yl)propanoylamino]-3-fluoro-phenyl]sulfonylamino]thiazole-4-carboxylic acid]
 |  |  |  |  | < 50 nM | 200 to 500 nM | 20 to 50 nM | 1000 to 10000 nM |  | N=C(N)CC(=O)Nc1ccc(S(=O)(=O)Nc2scnc2C(=O)O)cc1F [Example 4, 5-[[4-[(3-amino-3-imino-propanoyl)amino]-3-fluoro-phenyl]sulfonylamino]thiazole-4-carboxylic acid]
 |  |  |  |  | < 50 nM | < 200 nM | 20 to 50 nM | 500 to 1000 nM |  | N=C(N)CCC(=O)Nc1ccc(S(=O)(=O)Nc2scnc2C(=O)O)cc1F [Example 35, 5-[[4-[(4-amino-4-imino-butanoyl)amino]-3-fluoro-phenyl]sulfonylamino]thiazole-4-carboxylic acid]
100 to 300 nM | 500 to 1000 nM | 100 to 150 nM | 600 to 5000 nM |  |  |  |  |  |  | NCC(=O)Nc1ncc(S(=O)(=O)Nc2scnc2C(=O)O)cc1F [Comp. C, reference compound]
30 to 100 nM | < 150 nM | < 20 nM | < 150 nM |  | 50 to 200 nM | < 200 nM | < 20 nM | < 500 nM |  | N=C(N)NCC(=O)Nc1ccc(S(=O)(=O)Nc2scnc2C(=O)O)cc1Cl [Example 17, 5-[[3-chloro-4-[(2-guanidinoacetyl)amino]phenyl]sulfonylamino]thiazole-4-carboxylic acid]
 |  |  |  |  | 50 to 200 nM | 200 to 500 nM | 20 to 50 nM | 1000 to 10000 nM |  | O=C(CNC1=NCCN1)Nc1ccc(S(=O)(=O)Nc2scnc2C(=O)O)cc1F [Example 32]
30 to 100 nM | 500 to 1000 nM | 20 to 50 nM | 150 to 600 nM |  |  |  |  |  |  | N#Cc1cc(S(=O)(=O)Nc2scnc2C(=O)O)ccc1NC(=O)CN [Comp. D, reference compound]
100 to 300 nM | 500 to 1000 nM | 20 to 50 nM | 5000 to 10000 nM |  |  |  |  |  |  | NCC(=O)Nc1ccc(S(=O)(=O)Nc2scnc2C(=O)O)cc1 [Comp. H, reference compound]
 |  |  |  |  | < 50 nM | < 200 nM | 50 to 150 nM | 500 to 1000 nM |  | N=C(N)CC(=O)Nc1c(F)cc(S(=O)(=O)Nc2scnc2C(=O)O)cc1F [Example 13, 5-[[4-[(3-amino-3-imino-propanoyl)amino]-3,5-difluoro-phenyl]sulfonylamino]thiazole-4-carboxylic acid]
30 to 100 nM | 150 to 300 nM | 20 to 50 nM | 150 to 600 nM |  | 50 to 200 nM | < 200 nM | 20 to 50 nM | < 500 nM |  | N#Cc1cc(S(=O)(=O)Nc2scnc2C(=O)O)ccc1NC(=O)CNC(=N)N [Example 5, 5-[[3-cyano-4-[(2-guanidinoacetyl)amino]phenyl]sulfonylamino]thiazole-4-carboxylic acid]
 |  |  |  |  | < 50 nM | < 200 nM | < 20 nM | 500 to 1000 nM |  | O=C(CNC1=NCCN1)Nc1cc(F)c(S(=O)(=O)Nc2scnc2C(=O)O)cc1F [Example 10, 5-[[4-[[2-(4,5-dihydro-1H-imidazol-2-ylamino)acetyl]amino]-2,5-difluoro-phenyl]sulfonylamino]thiazole-4-carboxylic acid]
100 to 300 nM | 300 to 500 nM |  | 600 to 5000 nM |  |  |  |  |  | 29% remaining after 2 hours | COc1cc(S(=O)(=O)Nc2scnc2C(=O)O)ccc1NC(=O)CN [Comp. E, reference compound]
 |  |  |  |  | 50 to 200 nM | 200 to 500 nM | 50 to 150 nM | 1000 to 10000 nM |  | N=C(N)NCc1ccc(S(=O)(=O)Nc2scnc2C(=O)O)cc1F [Example 46, 5-[[3-fluoro-4-(guanidinomethyl)phenyl]sulfonylamino]thiazole-4-carboxylic acid]
< 30 nM | 150 to 300 nM | 20 to 50 nM | 600 to 5000 nM |  | < 50 nM | 200 to 500 nM | 20 to 50 nM | 1000 to 10000 nM |  | N=C(N)NNC(=O)Nc1ccc(S(=O)(=O)Nc2scnc2C(=O)O)cc1F [Example 29, 5-[[3-fluoro-4-(guanidinocarbamoylamino)phenyl]sulfonylamino]thiazole-4-carboxylic acid]
 |  |  |  |  | 50 to 200 nM | 200 to 500 nM | 20 to 50 nM | 1000 to 10000 nM |  | N=C(N)NCCC(=O)Nc1ccc(S(=O)(=O)Nc2scnc2C(=O)O)cc1F [Example 19, 5-[[3-fluoro-4-(3-guanidinopropanoylamino)phenyl]sulfon-ylamino]thiazole-4-carboxylic acid]
 |  |  |  |  | 50 to 200 nM | < 200 nM | < 20 nM | < 500 nM |  | N=C(N)NC(=O)Nc1ccc(S(=O)(=O)Nc2scnc2C(=O)O)cc1F [Example 28, 5-[[4-(carbamimidoylcarbamoyl-amino)-3-fluoro-phenyl]sulfonylamino] thiazole-4-carboxylic acid]
 |  |  |  |  | < 50 nM | < 200 nM | < 20 nM | 500 to 1000 nM |  | N=C(N)NCCOC(=O)Nc1ccc(S(=O)(=O)Nc2scnc2C(=O)O)cc1F [Example 27, 5-[[3-fluoro-4-(2-guanidinoethoxycarbonylamino)phenyl]sulfonylamino]thiazole-4-carboxylic acid]
 |  |  |  |  | 200 to 2000 nM | < 200 nM | 20 to 50 nM | 1000 to 10000 nM |  | N=C(NCCN)NCC(=O)Nc1ccc(S(=O)(=O)Nc2scnc2C(=O)O)cc1F [Example 39, 5-[[4-[[2-[[N-(2-aminoethyl)carbamimidoyl]amino]acetyl]amino]-3-fluoro-phenyl]sulfonylamino]thiazole-4-carboxylic acid]
 |  |  |  |  | < 50 nM | < 200 nM | 20 to 50 nM | 1000 to 10000 nM |  | N=C(N)NCC(=O)Nc1ncc(S(=O)(=O)Nc2scnc2C(=O)O)s1 [Example 23, 5-[[2-[(2-guanidinoacetyl)amino]thiazol-5-yl]sulfonylamino]thiazole-4-carboxylic acid]
100 to 300 nM | 300 to 500 nM | 20 to 50 nM | 600 to 5000 nM |  | 50 to 200 nM | 200 to 500 nM | 20 to 50 nM | 1000 to 10000 nM |  | N=C(N)NCC(=O)Nc1ncc(S(=O)(=O)Nc2scnc2C(=O)O)cc1F [Example 3, 5-[[5-fluoro-6-[(2-guanidinoacetyl)amino]-3-pyridyl]sulfonylamino]thiazole-4-carboxylic acid]
 |  |  |  |  | < 50 nM | 500 to 1000 nM | 20 to 50 nM | < 500 nM |  | N#CNC(=N)NCC(=O)Nc1ccc(S(=O)(=O)Nc2scnc2C(=O)O)cc1F [Example 34, 5-[[4-[[2-[(N-cyanocarbamimidoyl)amino]acetyl]amino]-3-fluoro-phenyl]sulfonylamino]thiazole-4-carboxylic acid]
 |  |  |  |  | 200 to 2000 nM | 200 to 500 nM | 50 to 150 nM | 1000 to 10000 nM |  | N=C(N)Nc1ccc(S(=O)(=O)Nc2scnc2C(=O)O)cc1 [Example 44, 5-[(4-guanidinophenyl)sulfonylamino]thiazole-4-carboxylic acid]
30 to 100 nM | < 150 nM | < 20 nM | < 150 nM |  | 50 to 200 nM | < 200 nM | < 20 nM | < 500 nM |  | N=C(N)NCC(=O)Nc1ccc(S(=O)(=O)Nc2scnc2C(=O)O)cc1OC(F)(F)F [Example 18, 5-[[4-[(2-guanidinoacetyl)amino]-3-(trifluoromethoxy)phenyl]sulfonylamino] thiazole-4-carboxylic acid]
 |  |  |  |  | 50 to 200 nM | 200 to 500 nM | < 20 nM | 1000 to 10000 nM |  | N=C(N)NCC(=O)Nc1cc(F)c(S(=O)(=O)Nc2scnc2C(=O)O)cc1F [Example 9, 5-[[2,5-difluoro-4-[(2-guanidinoacetyl)amino]phenyl]sulfonylamino]thiazole-4-carboxylic acid]
 |  |  |  |  | < 50 nM | 200 to 500 nM | 20 to 50 nM | 500 to 1000 nM |  | N=C(N)NNCC(=O)Nc1ccc(S(=O)(=O)Nc2scnc2C(=O)O)cc1F [Example 41, 5-[[4-[[2-(2-carbamimidoylhydrazino)acetyl]amino]-3-fluoro-phenyl]sulfonylamino]thiazole-4-carboxylic acid]
